{"source": "patent US10993436B2", "about": "(priority 2016, dated 2021)", "test_system": "Fusarium graminearum", "assay_type": "cell-based", "conditions": "enzyme disk 119 nM where (+) enzyme, 5 days", "note": "Like-named read-outs stand apart in the source and are kept apart here."}
{"substance": "mancozeb", "values": [{"measurement": "Reduction in F. graminearum growth relative to non-treated controls", "setting": "Mancozeb 0.5 mg/l", "result": 6, "unit": "% cd"}, {"measurement": "Reduction in F. graminearum growth relative to non-treated controls", "setting": "Mancozeb 2 mg/l", "result": 1, "unit": "% d"}, {"measurement": "Reduction in F. graminearum growth relative to non-treated controls", "setting": "Mancozeb 5 mg/l", "result": 17, "unit": "% cd"}, {"measurement": "Reduction in F. graminearum growth relative to non-treated controls", "setting": "Mancozeb 10 mg/l", "result": 26, "unit": "% bcd"}]}
